≈ marks a conversion by molar mass, not a printed value.
Assays:
[1] = tested on: mixed culture of nerve cells-glial cells; test: Protecting effect on NMDA-induced nerve cell death (LDH release); type: cell-based, ICR mouse; conditions: 100 μM NMDA, LDH release after 24 hours
Description: Isolation and culture of nerve cells were performed by Choi's method (Choi, D. W. 1985, Neurosci. Lett., 58: 293-297). That is, the cortex was isolated in fetus ICR mouse that was 14 days pregnant, and then single cells were obtained from the tissue using pipette. The cells were aliquoted into 2×10^5/well density in a 24-well plate (Falcon) in which glial cells of cerebral cortex had been cultured in an incubator maintained at 37° C. with 5% CO2 for over 3 weeks. The culture medium was supplemented with MEM (minimum essential medium, Sigma), 2 mM glutamine, 21 mM glucose, 26.5 mM bicarbonate, 10% fetal bovine serum (FBS). In 3-5 days after aliquot, 10 μM Ara-C (cytosine arabinoside) was treated to suppress proliferation of neuroglia. And it was treated with 100 μM NMDA and 1 μg/mL or 2 μg/mL of each sample (compound) to induce the death of nerve cells due to excitable toxicity for 20 minutes, in 12-15 days after aliquot. Because of nerve cell death, lactate dehydrogenase (LDH) accumulated in proportion to the number of dead cells. In 24 hours after drug treatment, the amount of dehydrogenase (LDH) released to outside of cells was measured by using an […] measurement kit (CytoTox 96, Promega). After the reaction was completed, the change of absorbance depending on the amount of LDH was measured by using a microplate spectrophotometer.

mouse brain cells = test: Inhibitory effect on ROS production in brain cells (DCF-DA, NMDA-induced); type: cell-based; conditions: dose suppressing 50% of production of reactive oxygen compared to control, mouse brain cells; for IC50: 24 h, read-out: ROS inhibitory effect ID50
Description: Oxidative stress was measured to test inhibitory effects on the production of reactive oxygen species (ROS) by using DCF-DA, which is a fluorescent probe. Brain cells were obtained from brain cortex of mouse to prepare cell solution with 2×10^6 cells/ml. Each brain cell was treated with 11 μM of DCF-DA followed by reaction in 37° C., 5% CO2 incubator for an hour. After washing twice, Compound 3 was treated with a concentration of 125 μg/ml and 250 μg/ml. At the same time, 300 μM of NMDA was treated and it was incubated in 37° C., 5% CO2 incubator for 24 hours.
(§1) ROS inhibitory effect of compounds was represented to the dose suppressing 50% of production of reactive oxygen compared to control. […] The activity of superoxide dismutase (SOD) was measured by using a kit acquired in Sigma.

[2] = tested on: superoxide dismutase (SOD); test: Increase of superoxide dismutase (SOD) activity in mouse brain cells; type: cell-based; conditions: 100 μg/ml
Description: as §1

[3] = tested on: pentylentetrazole (PTZ)-induced convulsion; test: Anti-convulsant effect, pentylentetrazole (PTZ) test; type: in vivo; conditions: 10 mg/kg intraperitoneally, PTZ 80 mg/kg subcutaneously; for mortality rate / Induction percentage of convulsion: (animals/total); for mortality rate: negative control 70(17/23); for Induction percentage of convulsion: negative control 100(23/23); for Initiation time of convulsion: negative control 5.0 ± 0.7; for Duration of convulsion: negative control 46.7 ± 3.3
Method in brief: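 Compound was given intraperitoneally at 10 mg/kg before PTZ challenge. The read-outs were time to convulsion onset, time until convulsions fully disappeared, and mortality.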

thoracic aorta of rats = test: Relaxing effect on thoracic aorta contracted by phenylephrine (organ bath); parameters: species or system rats of SD species; conditions: Rattus norvegicus; 67 μg/mL; phenylephrine 0.5 μM; mean n = 3; read-out: Relaxation percentage
Excerpt: After male rats of SD species (250-300 g) were anesthetized by inhalation of ether, their thoracic aortas were extracted and put into a Krebs buffer (mM; NaCl 118, NaHCO3 27.3, KCl 4.8, MgSO4 1.2, KH2PO4 1.0, CaCl2 1.25, glucose 11.1). 2 mm of aortic ring was made under dissecting microscope and cultured in an organ bath to measure the tension of blood vessels. The organ bath was filled with Krebs buffer and saturated with 95% O2, 5% CO2 to maintain dissolved oxygen and physiological pH. Changing of tension was measured by a tension meter (Hugo-sachs, model K30) and recorded by physiological recorder (Coulbourn polygraph). The length of the blood vessels was increased step by step to make 1.0 g of basal tension for 90 minutes. The equilibrated blood vessel was contracted by phenylephrine (0.5 μM). When the contraction furrow reached equilibrium, compounds were added, followed by observation of relaxation response.

Row | SMILES | Inhibitory effect of cell death by NMDA-induced excitable neurotoxicity ([1]; 1 μg/ml compound) [%] | Inhibitory effect of cell death by NMDA-induced excitable neurotoxicity ([1]; 2 μg/ml compound) [%] | ROS inhibitory effect ID50 (mouse brain cells) [mg/L] | Increase of SOD activity, compared to control [2] | mortality rate [3] | Induction percentage of convulsion [3] | Initiation time of convulsion [3] [min] | Duration of convulsion [3] [min] | IC50 (mouse brain cells) [mg/L] | inhibition at 67 µg/mL (thoracic aorta of rats) [%]
1 | CCOC(=O)N(CCCCN(CCCn1c(=O)[nH]c2ccccc2c1=O)C(C)=O)CCCn1c(=O)[nH]c2ccccc2c1=O [Compound 14, (4-{acetyl-[3-(2,4-dioxo-1,4-dihydro-2H-quinazolin-3-yl)propyl]amino}butyl)-[3-(2,4-dioxo-1,4-dihydro-2H-quinazolin-3-yl)propyl]carbanic Acid ethyl ester] | 18.9 | 26.9 | 90.1 ± 12.2 | 2.7 ± 1.0 | 0(0/6) % | 100(6/6) % | 8.5 ± 1.8 | 2.9 ± 2.1 | – | –
2 | O=c1[nH]c2ccccc2c(=O)n1CCCNCCNCCCn1c(=O)[nH]c2ccccc2c1=O [Compound 29, 3-(3-{2-[3-(2,4-dioxo-1,4-dihydro-2H-quinazolin-3-yl)propylamino]ethylamino}propyl)-1H-quinazoline-2,4-dione] | 8.5 | 29.5 | – | 3.0 ± 1.1 | 17(1/6) % | 83(5/6) % | 18.2 ± 9.1 | 30.3 ± 11.1 | 10.1 ± 17.3 (≈ 21.7 µM) | –
3 | Cn1c(=O)n(CCCNCCCCNCCCn2c(=O)c3ccccc3n(C)c2=O)c(=O)c2ccccc21 [Compound 27, 1-methyl-3-(3-{4-[3-(1-methyl-2,4-dioxo-1,4-dihydro-2H-quinazolin-3-yl)propylamino]butylamino}propyl)-1H-quinazoline-2,4-dione] | 33.7 | 36.0 | – | 2.4 ± 7.8 | 50(3/6) % | 100(6/6) % | 8.4 ± 2.6 | 35.8 ± 9.8 | 21.9 ± 16.1 (≈ 42.1 µM) | –
4 | CCCCCCn1c(=O)n(CCCN(CCCCN(CCCn2c(=O)c3ccccc3n(CCCCCC)c2=O)C(=O)OC(C)(C)C)C(=O)OC(C)(C)C)c(=O)c2ccccc21 [Compound 32, (4-{tert-butoxycarbonyl-[3-(1-hexyl-2,4-dioxo-1,4-dihydro-2H-quinazolin-3-yl)propyl]amino}butyl)-[3-(1-hexyl-2,4-dioxo-1,4-dihydro-2H-quinazolin-3-yl)propyl]carbamic acid tert-butyl ester] | 32.0 | 29.8 | – | 0.3 ± 7.1 | 50(3/6) % | 100(5/6) % | 11.3 ± 4.5 | 29.8 ± 12.0 | 14.4 ± 7.6 (≈ 16.7 µM) | –
5 | CCCCCCn1c(=O)n(CCCNCCCCNCCCn2c(=O)c3ccccc3n(CCCCCC)c2=O)c(=O)c2ccccc21 [Compound 33, 1-hexyl-3-(3-{4-[3-(1-hexyl-2,4-dioxo-1,4-dihydro-2H-quinazolin-3-yl)propylamino]butylamino}propyl)-1H-quinazoline-2,4-dione] | 14.6 | 65.1 | – | – | 83(5/6) % | 100(6/6) % | 16.1 ± 2.2 | 36.6 ± 7.6 | 173 ± 19.7 (≈ 261 µM) | 38.5
6 | O=c1[nH]c2ccccc2c(=O)n1CCCCNCCCn1c(=O)[nH]c2ccccc2c1=O [Compound 7, 3-{4-[3-(2,4-dioxo-1,4-dihydro-2H-quinazolin-3-yl)propylamino]butyl}-1H-quinazoline-2,4-dione] | 26.0 | 39.7 | – | – | 67(4/6) % | 100(6/6) % | 3.1 ± 0.3 | 42.9 ± 8.7 | 17.7 ± 17.3 (≈ 40.6 µM) | 56.8
7 | O=c1[nH]c2ccccc2c(=O)n1CCCNCCCNCCCn1c(=O)[nH]c2ccccc2c1=O [Compound 24, 3-(3-{3-[3-(2,4-dioxo-1,4-dihydro-2H-quinazolin-3-yl)propylamino]propylamino}propyl)-1H-quinazoline-2,4dione] | 27.4 | 30.3 | – | 6.9 ± 3.8 | 50(3/3) % | 100(6/6) % | 6.1 ± 1.7 | 35.7 ± 84 | 122 ± 32.4 (≈ 256 µM) | –
8 | Cc1ccc(S(=O)(=O)N(CCCCNCCCn2c(=O)[nH]c3ccccc3c2=O)CCCn2c(=O)[nH]c3ccccc3c2=O)cc1 [Compound 40, N-[3-(2,4-dioxo-1,4-dihydro-2H-quinazolin-3-yl)propyl]-N-{4-[3-(2,4-dioxo-1,4-dihydro-2H-quinazolin-3-yl)propylamino]butyl}-4-methylbenzenesulfonamide] | – | 34.5 | – | 8.3 ± 3.2 | 83(5/6) % | 100(6/6) % | 11.2 ± 2.4 | 42.3 ± 8.5 | 31 ± 8.1 (≈ 47.9 µM) | –
9 | CC(=O)N(CCCCn1c(=O)[nH]c2ccccc2c1=O)CCCn1c(=O)[nH]c2ccccc2c1=O [Compound 22, N-[4-(2,4-dioxo-1,4-dihydro-2H-quinazolin-3-yl)butyl]-N-[3-(2,4-dioxo-1,4-dihydro-2H-quinazolin-3-yl)propyl]acetamide] | 17.0 | 14.0 | – | 3.7 ± 0.8 | 0(0/6) % | 83(5/6) % | 15.2 ± 9.0 | 7.0 ± 3.2 | 172 ± 23.6 (≈ 361 µM) | –

Source: patent US8404696B2, “Quinazoline-2,4-dione derivative, and medical compositions for the prophylaxis and treatment of cranial nerve disease containing the same” (Shin Poong Pharmaceutical Co., Ltd., priority 2008, dated 2013)
